ChEMBL document CHEMBL4507268 (2021)

Legend:
Conditions in all cases: Compound concentration 1.0 uM
[1] = target: CDK18/Cyclin Y (Homo sapiens) (UniProt Q07002+Q8ND76)
[2] = target: T1, Receptor-interacting serine/threonine-protein kinase 1 (Homo sapiens) (UniProt Q13546)
T1 sequence (whole entry): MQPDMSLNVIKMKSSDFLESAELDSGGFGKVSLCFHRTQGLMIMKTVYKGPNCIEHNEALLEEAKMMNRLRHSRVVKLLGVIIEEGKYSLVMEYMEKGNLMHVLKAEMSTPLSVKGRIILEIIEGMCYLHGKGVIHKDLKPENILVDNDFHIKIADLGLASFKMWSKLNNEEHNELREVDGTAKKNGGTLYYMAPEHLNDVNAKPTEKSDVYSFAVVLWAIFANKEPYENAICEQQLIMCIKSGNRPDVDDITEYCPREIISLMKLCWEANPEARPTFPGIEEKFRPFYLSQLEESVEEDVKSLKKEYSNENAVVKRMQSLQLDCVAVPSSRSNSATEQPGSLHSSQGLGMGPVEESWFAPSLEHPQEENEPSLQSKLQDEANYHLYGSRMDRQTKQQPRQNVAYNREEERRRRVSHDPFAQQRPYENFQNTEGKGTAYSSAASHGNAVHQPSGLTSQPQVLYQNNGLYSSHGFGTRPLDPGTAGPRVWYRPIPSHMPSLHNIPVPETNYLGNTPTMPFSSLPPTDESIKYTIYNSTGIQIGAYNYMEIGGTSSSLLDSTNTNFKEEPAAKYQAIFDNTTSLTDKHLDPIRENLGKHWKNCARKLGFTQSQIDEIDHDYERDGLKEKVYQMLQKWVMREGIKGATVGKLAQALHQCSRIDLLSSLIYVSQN

[3] = target: Phosphatidylinositol 4,5-bisphosphate 3-kinase catalytic subunit gamma isoform (Homo sapiens) (UniProt P48736)
Chain of Phosphatidylinositol 4,5-bisphosphate 3-kinase catalytic subunit gamma isoform (Homo sapiens) (P48736 whole entry, looked up, canonical isoform): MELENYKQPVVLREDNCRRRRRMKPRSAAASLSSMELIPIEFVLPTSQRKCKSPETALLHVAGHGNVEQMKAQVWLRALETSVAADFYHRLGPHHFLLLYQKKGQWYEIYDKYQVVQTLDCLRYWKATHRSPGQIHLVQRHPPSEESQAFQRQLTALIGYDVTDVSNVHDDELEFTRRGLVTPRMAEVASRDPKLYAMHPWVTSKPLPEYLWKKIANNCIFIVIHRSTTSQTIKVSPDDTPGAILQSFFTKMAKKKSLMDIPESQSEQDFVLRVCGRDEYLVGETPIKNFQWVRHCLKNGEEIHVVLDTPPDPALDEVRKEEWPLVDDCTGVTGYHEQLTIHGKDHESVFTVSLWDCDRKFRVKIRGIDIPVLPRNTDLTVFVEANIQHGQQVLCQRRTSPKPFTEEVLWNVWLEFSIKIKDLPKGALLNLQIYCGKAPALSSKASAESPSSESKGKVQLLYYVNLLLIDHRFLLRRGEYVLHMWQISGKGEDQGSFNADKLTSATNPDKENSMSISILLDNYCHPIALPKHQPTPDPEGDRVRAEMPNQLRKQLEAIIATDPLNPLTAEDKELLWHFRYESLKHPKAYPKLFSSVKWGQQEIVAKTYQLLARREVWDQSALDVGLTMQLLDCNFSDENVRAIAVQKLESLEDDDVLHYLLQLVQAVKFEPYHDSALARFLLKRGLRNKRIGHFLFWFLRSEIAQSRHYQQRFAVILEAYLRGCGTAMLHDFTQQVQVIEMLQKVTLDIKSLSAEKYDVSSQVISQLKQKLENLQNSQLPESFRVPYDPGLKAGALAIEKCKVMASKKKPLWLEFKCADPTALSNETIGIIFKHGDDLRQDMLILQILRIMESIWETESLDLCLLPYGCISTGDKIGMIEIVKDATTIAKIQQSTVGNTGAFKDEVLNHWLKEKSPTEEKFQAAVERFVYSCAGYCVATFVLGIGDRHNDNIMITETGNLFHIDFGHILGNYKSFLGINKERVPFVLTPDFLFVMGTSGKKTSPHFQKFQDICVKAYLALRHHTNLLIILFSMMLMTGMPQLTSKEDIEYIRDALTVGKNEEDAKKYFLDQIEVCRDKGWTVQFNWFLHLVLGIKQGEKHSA

[4] = target: T2, Tyrosine-protein kinase JAK3 (Homo sapiens) (UniProt P52333)
T2 sequence (whole entry): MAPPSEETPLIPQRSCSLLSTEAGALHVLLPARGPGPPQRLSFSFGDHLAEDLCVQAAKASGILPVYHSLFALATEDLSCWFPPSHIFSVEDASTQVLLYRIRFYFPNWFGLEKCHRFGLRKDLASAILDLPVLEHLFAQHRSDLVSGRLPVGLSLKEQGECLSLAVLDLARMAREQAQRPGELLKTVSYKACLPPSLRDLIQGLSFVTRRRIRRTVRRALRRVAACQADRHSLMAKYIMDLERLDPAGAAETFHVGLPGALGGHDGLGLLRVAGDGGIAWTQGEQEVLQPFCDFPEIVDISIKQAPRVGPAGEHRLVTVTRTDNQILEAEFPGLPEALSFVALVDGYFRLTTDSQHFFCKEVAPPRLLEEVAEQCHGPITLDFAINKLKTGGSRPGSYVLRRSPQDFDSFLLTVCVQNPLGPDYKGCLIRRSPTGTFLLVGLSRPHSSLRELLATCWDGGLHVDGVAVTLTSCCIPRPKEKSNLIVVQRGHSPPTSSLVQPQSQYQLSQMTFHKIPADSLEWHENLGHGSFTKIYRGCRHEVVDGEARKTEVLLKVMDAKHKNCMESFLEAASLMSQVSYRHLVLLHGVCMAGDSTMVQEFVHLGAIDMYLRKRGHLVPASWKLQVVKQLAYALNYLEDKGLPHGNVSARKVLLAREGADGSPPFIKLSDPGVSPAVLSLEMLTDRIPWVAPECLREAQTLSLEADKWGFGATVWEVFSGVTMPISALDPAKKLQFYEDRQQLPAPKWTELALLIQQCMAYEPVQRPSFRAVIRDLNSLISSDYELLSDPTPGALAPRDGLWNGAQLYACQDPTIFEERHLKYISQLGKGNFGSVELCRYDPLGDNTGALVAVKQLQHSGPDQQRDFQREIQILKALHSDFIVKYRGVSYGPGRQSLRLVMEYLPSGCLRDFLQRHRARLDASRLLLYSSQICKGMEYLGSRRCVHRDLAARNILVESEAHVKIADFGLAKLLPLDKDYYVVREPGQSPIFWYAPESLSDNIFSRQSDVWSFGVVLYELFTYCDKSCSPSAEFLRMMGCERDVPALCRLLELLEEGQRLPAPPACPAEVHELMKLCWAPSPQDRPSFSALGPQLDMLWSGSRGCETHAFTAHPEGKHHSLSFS

Measured: % residual kinase activity

CN1CCN(c2cnc3c(C4CCN(C(=O)c5ccc(OC(F)(F)F)cc5N)CC4)ncnc3c2)CC1 [BAY-885]
inactive: [1] 100% | [2] 100% | [3] 100% | [4] 118%
